Experimental data reported in patent US9845291B2, “Estrogen receptor modulators and uses thereof” (Genentech, Inc., priority 2014, dated 2017).

Target: estrogen receptor alpha (ESR1) (Homo sapiens, UniProt P03372)
Assay: cell-based
Details: for ER-alpha MCF7 HCS Sinf: MCF7 breast cancer cells, 4 hours, plateau of the maximal effect, DMSO and Fulvestrant define 0% and 100% changes in ESR1
Procedure: Where more than one name is associated with a Formula I compound or intermediate, the chemical structure shall define the compound.
Cell plates were incubated at 37° C., for 4 hours. Fixation and permeabilization were carried out using a Biotek EL406 plate washer and dispenser as follows. […] Samples were incubated 30 minutes. Well contents was aspirated and 50 ul/well of Phosphate Buffered Saline (PBS) containing 0.5% w/v bovine serum albumen, 0.5% v/v Triton X-100 (Antibody Dilution Buffer) was added to each well. Samples were incubated for 30 minutes. Well contents were aspirated and washed 3 times with 100 ul/well of PBS. Immunofluorescence staining of estrogen receptor alpha (ESR1) was carried out using a Biotek EL406 plate washer and dispenser as follows. […] Samples were incubated for 2 hours at room temperature. Samples were washed 4 times with 100 ul/well of PBS. […] Samples were incubated for 2 hours at room temperature. Samples were washed 3 times with 100 ul/well of PBS using a Biotek EL406. Quantitative fluorescence imaging of ESR1 was carried out using a Cellomics Arrayscan V (Thermo). […] Channel 1 (DNA stain) was used to define the nuclear region (Circ). […] Data analysis was carried out using Genedata Screener Software, with DMSO and 5 nM Fulvestrant treated samples being used to define the 0% and 100% changes in ESR1. The “Robust Fit” method was used to define the inflexion point of curve (EC50) and the plateau of the maximal effect (Sin f).

Sequence of estrogen receptor alpha (ESR1) (P03372 whole entry): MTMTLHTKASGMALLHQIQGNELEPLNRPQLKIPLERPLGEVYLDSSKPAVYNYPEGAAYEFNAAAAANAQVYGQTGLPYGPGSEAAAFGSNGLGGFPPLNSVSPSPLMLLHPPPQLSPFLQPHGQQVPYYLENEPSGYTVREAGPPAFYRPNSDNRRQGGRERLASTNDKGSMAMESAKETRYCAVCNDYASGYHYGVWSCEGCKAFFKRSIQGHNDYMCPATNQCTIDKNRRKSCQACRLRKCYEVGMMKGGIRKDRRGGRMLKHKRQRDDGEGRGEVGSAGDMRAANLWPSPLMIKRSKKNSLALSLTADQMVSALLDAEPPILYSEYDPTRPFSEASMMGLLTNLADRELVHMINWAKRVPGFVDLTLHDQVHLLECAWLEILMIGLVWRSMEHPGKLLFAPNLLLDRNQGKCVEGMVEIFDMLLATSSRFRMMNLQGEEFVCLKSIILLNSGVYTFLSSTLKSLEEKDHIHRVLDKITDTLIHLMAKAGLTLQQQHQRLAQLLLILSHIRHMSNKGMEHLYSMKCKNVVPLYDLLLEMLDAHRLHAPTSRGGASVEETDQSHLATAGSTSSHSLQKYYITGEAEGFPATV

| Compound | EC50 | ER-alpha MCF7 HCS Sinf |
| --- | --- | --- |
| CC/C(=C(\c1ccc(O)cc1)c1ccc(OC[C@H](C)N2CC[C@@H](CF)C2)cc1)c1ccccc1 [Example 24, 4-((Z)-1-(4-((S)-2-((R)-3-(Fluoromethyl)pyrrolidin-1-yl)propoxy)phenyl)-2-phenylbut-1-en-1-yl)phenol] | 180 pM | −58% |
| CC/C(=C(/c1ccc(OCCN2CC(CF)C2)cc1)c1ccc2[nH]ncc2c1)c1ccccc1 [Example 25, (E)-5-(1-(4-(2-(3-(Fluoromethyl)azetidin-1-yl)ethoxy)phenyl)-2-phenylbut-1-en-1-yl)-1H-indazole] | 1500 pM | −92% |
| COc1ccc(/C(=C(\c2ccc(OCCN3CC[C@@H](CF)C3)cc2)c2ccc3[nH]nc(F)c3c2)C2CCC2)c(Cl)c1 [Example 26, (R,E)-5-(2-(2-Chloro-4-methoxyphenyl)-2-cyclobutyl-1-(4-(2-(3-(fluoromethyl)pyrrolidin-1-yl)ethoxy)phenyl)vinyl)-3-fluoro-1H-indazole] | 600 pM | −75% |
| FC[C@@H]1CCN(CCOc2ccc(/C(=C(\c3ncc(C(F)(F)F)cc3Cl)C3CCC3)c3ccc4[nH]nc(F)c4c3)cc2)C1 [Example 27, (R,E)-5-(2-(3-Chloro-5-(trifluoromethyl)pyridin-2-yl)-2-cyclobutyl-1-(4-(2-(3-(fluoromethyl)pyrrolidin-1-yl)ethoxy)phenyl)vinyl)-3-fluoro-1H-indazole] | 850 pM | −73% |
| O=C(C1=C(c2ccc(O)cc2)CCc2cc(O)ccc21)c1ccc(OCCN2CC(CF)C2)cc1 [Example 32, (4-(2-(3-(Fluoromethyl)azetidin-1-yl)ethoxy)phenyl)(6-hydroxy-2-(4-hydroxyphenyl)-3,4-dihydronaphthalen-1-yl)methanone] | 190 pM | −101% |
| O=C(c1ccc(OCCN2CC(CF)C2)cc1)c1c(-c2ccc(F)c(F)c2)sc2cc(O)ccc12 [Example 35, (2-(3,4-difluorophenyl)-6-hydroxybenzo[b]thiophen-3-yl)(4-(2-(3-(fluoromethyl)azetidin-1-yl)ethoxy)phenyl)methanone] | 550 pM | −98% |
| Cc1cc(-c2sc3cc(O)ccc3c2C(=O)c2ccc(OCCN3CC(CF)C3)cc2)ccc1F [Example 36, (2-(4-fluoro-3-methylphenyl)-6-hydroxybenzo[b]thiophen-3-yl)(4-(2-(3-(fluoromethyl)azetidin-1-yl)ethoxy)phenyl)methanone] | 2500 pM | −97% |
| O=C(c1ccc(OCCN2CC(CF)C2)cc1)c1c(-c2ccc(F)c(Cl)c2)sc2cc(O)ccc12 [Example 37, (2-(3-chloro-4-fluorophenyl)-6-hydroxybenzo[b]thiophen-3-yl)(4-(2-(3-(fluoromethyl)azetidin-1-yl)ethoxy)phenyl)methanone] | 4400 pM | −97% |
| Cc1cc(F)ccc1-c1sc2cc(O)ccc2c1C(=O)c1ccc(OCCN2CC(CF)C2)cc1 [Example 38, (2-(4-fluoro-2-methylphenyl)-6-hydroxybenzo[b]thiophen-3-yl)(4-(2-(3-(fluoromethyl)azetidin-1-yl)ethoxy)phenyl)methanone] | 880 pM | −96% |
| O=C(c1ccc(OCCN2CC(CF)C2)cc1)c1c(-c2ccccc2)sc2cc(O)ccc12 [Example 39, (4-(2-(3-(fluoromethyl)azetidin-1-yl)ethoxy)phenyl)(6-hydroxy-2-phenylbenzo[b]thiophen-3-yl)methanone] | 1600 pM | −96% |
| Cc1cc(-c2c(C)c3cc(O)ccc3n2Cc2ccc(OCCN3CC(CF)C3)cc2)ccc1O [Example 41, 1-[[4-[2-[3-(fluoromethyl)azetidin-1-yl]ethoxy]phenyl]methyl]-2-(4-hydroxy-3-methyl-phenyl)-3-methyl-indol-5-ol] | 51.8 pM | −97.8% |
| Cc1cc(-c2c(C)c3cc(O)ccc3n2Cc2ccc(OCCN3CC[C@@H](CF)C3)cc2)ccc1O [Example 42, (R)-1-(4-(2-(3-(fluoromethyl)pyrrolidin-1-yl)ethoxy)benzyl)-2-(4-hydroxy-3-methylphenyl)-3-methyl-1H-indol-5-ol] | 25 pM | −97.5% |
| Cc1cc(-c2c(C)c3cc(O)ccc3n2Cc2ccc(OC[C@H](C)N3CC[C@@H](CF)C3)cc2)ccc1O [Example 43, 1-[[4-[(2S)-2-[(3R)-3-(fluoromethyl)pyrrolidin-1-yl]propoxy]phenyl]methyl]-2-(4-hydroxy-3-methyl-phenyl)-3-methyl-indol-5-ol] | 17.9 pM | −96.0% |
| Cc1c(-c2ccc(O)c(F)c2)n(Cc2ccc(OCCN3CC[C@@H](CF)C3)cc2)c2ccc(O)cc12 [Example 44, 2-(3-fluoro-4-hydroxy-phenyl)-1-[[4-[2-[(3R)-3-(fluoromethyl)pyrrolidin-1-yl]ethoxy]phenyl]methyl]-3-methyl-indol-5-ol] | 27.8 pM | −98.1% |
| Cc1c(-c2ccc(O)c(F)c2)n(Cc2ccc(OC[C@H](C)N3CC[C@@H](CF)C3)cc2)c2ccc(O)cc12 [Example 45, 2-(3-fluoro-4-hydroxy-phenyl)-1-[[4-[(2S)-2-[(3R)-3-(fluoromethyl)pyrrolidin-1-yl]propoxy]phenyl]methyl]-3-methyl-indol-5-ol] | 6.32 pM | −97.5% |
| Cc1c(-c2ccc(O)c(Cl)c2)n(Cc2ccc(OCCN3CC(CF)C3)cc2)c2ccc(O)cc12 [Example 46, 2-(3-chloro-4-hydroxy-phenyl)-1-[[4-[2-[3-(fluoromethyl)azetidin-1-yl]ethoxy]phenyl]methyl]-3-methyl-indol-5-ol] | 30 pM | −97.8% |
| Cc1c(-c2ccc(O)cc2Cl)n(Cc2ccc(OCCN3CC(CF)C3)cc2)c2ccc(O)cc12 [Example 47, 2-(2-chloro-4-hydroxy-phenyl)-1-[[4-[2-[3-(fluoromethyl)azetidin-1-yl]ethoxy]phenyl]methyl]-3-methyl-indol-5-ol] | 115 pM | −94.1% |
| Cc1c(-c2ccc(O)cc2)n(Cc2ccc(OCCN3CC(CF)C3)cc2)c2ccc(O)c(F)c12 [Example 48, 4-fluoro-1-[[4-[2-[3-(fluoromethyl)azetidin-1-yl]ethoxy]phenyl]methyl]-2-(4-hydroxyphenyl)-3-methyl-indol-5-ol] | 662 pM | −92.8% |
| Cc1c(-c2ccc(O)cc2)n(Cc2ccc(OCCN3CC(CF)C3)cc2)c2cc(F)c(O)cc12 [Example 49, 6-fluoro-1-(4-(2-(3-(fluoromethyl)azetidin-1-yl)ethoxy)benzyl)-2-(4-hydroxyphenyl)-3-methyl-1H-indol-5-ol] | 187 pM | −95.6% |
| Cc1c(-c2ccc(O)cc2Cl)n(Cc2ccc(OCCN3CC[C@@H](CF)C3)cc2)c2ccc(O)cc12 [Example 55, 2-(2-chloro-4-hydroxyphenyl)-1-(4-(2-((R)-3-(fluoromethyl)pyrrolidin-1-yl)ethoxy)benzyl)-3-methyl-1H-indol-5-ol] | 19.9 pM | −98.7% |
| Cc1c(-c2ccc(O)cc2Cl)n(Cc2ccc(OC[C@H](C)N3CC[C@@H](CF)C3)cc2)c2ccc(O)cc12 [Example 56, 2-(2-chloro-4-hydroxyphenyl)-1-(4-((S)-2-((R)-3-(fluoromethyl)pyrrolidin-1-yl)propoxy)benzyl)-3-methyl-1H-indol-5-ol] | 28.5 pM | −95.6% |
| Cc1cc(O)ccc1-c1c(C)c2cc(O)ccc2n1Cc1ccc(OCCN2CC(CF)C2)cc1 [Example 57, 1-[[4-[2-[3-(fluoromethyl)azetidin-1-yl]ethoxy]phenyl]methyl]-2-(4-hydroxy-2-methyl-phenyl)-3-methyl-indol-5-ol] | 46.9 pM | −93.4% |
| Oc1cccc([C@H]2Sc3c(ccc(O)c3F)O[C@H]2c2ccc(OCCN3CC(CF)C3)cc2)c1 [Example 58, (2S,3R)-5-fluoro-2-(4-(2-(3-(fluoromethyl)azetidin-1-yl)ethoxy)phenyl)-3-(3-hydroxyphenyl)-2,3-dihydrobenzo[b][1,4]oxathiin-6-ol] | 26 pM | −99.8% |
| Oc1cccc([C@@H]2Sc3c(ccc(O)c3F)O[C@@H]2c2ccc(OCCN3CC(CF)C3)cc2)c1 [Example 60, (2R,3S)-5-fluoro-2-(4-(2-(3-(fluoromethyl)azetidin-1-yl)ethoxy)phenyl)-3-(3-hydroxyphenyl)-2,3-dihydrobenzo[b][1,4]oxathiin-6-ol] | 15800 pM | −91.9% |
| C[C@@H](COc1ccc(Oc2c(-c3ccc(S(C)(=O)=O)cc3)ccc3cc(O)ccc23)cc1)N1CC[C@@H](CF)C1 [Example 66, 5-[4-[(2S)-2-[(3R)-3-(fluoromethyl)pyrrolidin-1-yl]propoxy]phenoxy]-6-(4-methylsulfonylphenyl) naphthalen-2-ol] | 6 pM | −93.4% |
| CS(=O)(=O)c1ccc(-c2ccc3cc(O)ccc3c2C(=O)c2ccc(OCCN3CC[C@@H](CF)C3)cc2)cc1 [Example 67, [4-[2-[(3R)-3-(fluoromethyl)pyrrolidin-1-yl]ethoxy]phenyl]-[6-hydroxy-2-(4-methylsulfonylphenyl)-1-naphthyl]methanone] | 414 pM | −97.6% |
